Literature values in US20090198080A1, “METHOD FOR THE PREPARATION OF ARYL ETHERS” (Pfizer Inc, priority 2004, published 2009).

What was measured:
[1] = different animal models
[2] = tested on: dopamine reuptake
[3] = tested on: serotonin reuptake
[4] = tested on: norepinephrine reuptake
[5] = tested on: monoamine oxidase (MAO)
[6] = tested on: 8-OH-DPAT hypothermia; details: in vivo

Structure (SMILES): CCOc1ccccc1O[C@@H](c1ccccc1)[C@@H]1CNCCO1 (racemic) [reboxetine, 2-[α-(2-ethoxyphenoxy)benzyl]morpholine]
- anticholinergic binding activity [1]: no anticholinergic binding activity
- dopamine reuptake inhibitory activity [2]: no dopamine reuptake inhibitory activity
- serotonin reuptake inhibitory activity [3]: only marginal
- norepinephrine reuptake inhibitory activity [4]: selective norepinephrine reuptake inhibitor
- monoamine oxidase (MAO) inhibitory activity [5]: substantially devoid
- effect in the 8-OH-DPAT hypothermia test [6]: ineffective
